Results reported in paper PMC7072624 (Biomolecules, 2020).

What was measured:
[1] = molecular target: T1, PPARγ (Homo sapiens, UniProt P37231); test: competitive TR-FRET binding assay (Lanthascreen)
T1 construct: gene PPARG
T1 sequence (P37231 1-505): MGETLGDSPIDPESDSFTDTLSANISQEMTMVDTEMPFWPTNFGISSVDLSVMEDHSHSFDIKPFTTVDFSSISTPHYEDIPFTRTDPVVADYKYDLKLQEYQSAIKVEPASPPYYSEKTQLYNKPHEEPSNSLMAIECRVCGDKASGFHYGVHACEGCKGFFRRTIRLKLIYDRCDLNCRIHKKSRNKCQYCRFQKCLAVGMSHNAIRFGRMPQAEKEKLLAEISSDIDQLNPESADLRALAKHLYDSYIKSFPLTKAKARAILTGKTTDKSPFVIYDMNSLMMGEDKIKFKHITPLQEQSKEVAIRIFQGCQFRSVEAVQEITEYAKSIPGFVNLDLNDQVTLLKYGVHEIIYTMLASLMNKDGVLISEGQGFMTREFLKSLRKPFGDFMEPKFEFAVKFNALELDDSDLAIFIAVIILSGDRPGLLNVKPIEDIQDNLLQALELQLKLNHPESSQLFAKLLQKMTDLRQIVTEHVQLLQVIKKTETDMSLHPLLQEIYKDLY

[2] = molecular target: T2, CDK5 (CDK5/p25) (Homo sapiens, UniProt Q00535); test: in vitro kinase inhibition assay; type: biochemical
T2 construct: with p25

[3] = molecular target: T3, peroxisome proliferator-activated receptor γ (PPARγ) (Homo sapiens, UniProt P37231); test: ([…] Å); competitive TR-FRET binding assay
T3 construct: gene PPARG
T3 sequence (P37231 223-505): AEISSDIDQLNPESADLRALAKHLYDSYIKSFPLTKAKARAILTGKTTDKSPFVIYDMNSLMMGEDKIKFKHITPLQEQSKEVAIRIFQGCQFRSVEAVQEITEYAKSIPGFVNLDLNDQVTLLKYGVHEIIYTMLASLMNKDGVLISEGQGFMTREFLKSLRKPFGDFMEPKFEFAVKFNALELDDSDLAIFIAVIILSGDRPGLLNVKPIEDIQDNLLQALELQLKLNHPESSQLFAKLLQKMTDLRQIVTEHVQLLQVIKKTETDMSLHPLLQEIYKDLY

T2 sequence (Q00535 whole entry): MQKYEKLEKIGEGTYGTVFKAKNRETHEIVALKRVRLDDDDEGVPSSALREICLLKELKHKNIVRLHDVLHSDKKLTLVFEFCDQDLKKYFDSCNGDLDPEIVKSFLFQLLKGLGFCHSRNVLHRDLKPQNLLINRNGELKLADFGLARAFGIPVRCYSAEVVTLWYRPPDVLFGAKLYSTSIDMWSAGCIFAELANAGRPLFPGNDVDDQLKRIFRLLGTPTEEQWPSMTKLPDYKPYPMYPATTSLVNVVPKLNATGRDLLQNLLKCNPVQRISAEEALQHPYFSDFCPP
T2 sequence (Q15078 2-307 partner): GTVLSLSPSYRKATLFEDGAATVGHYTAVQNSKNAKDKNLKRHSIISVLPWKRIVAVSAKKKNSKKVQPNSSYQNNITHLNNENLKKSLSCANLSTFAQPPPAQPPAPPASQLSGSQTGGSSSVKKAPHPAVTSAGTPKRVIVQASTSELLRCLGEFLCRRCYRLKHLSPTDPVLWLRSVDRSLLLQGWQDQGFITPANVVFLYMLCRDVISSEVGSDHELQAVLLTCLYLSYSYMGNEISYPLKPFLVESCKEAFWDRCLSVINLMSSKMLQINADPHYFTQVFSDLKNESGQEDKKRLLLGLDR

| Compound | Ki [1] [µM] | IC50 [2] [µM] | Ki [3] [µM] |
| --- | --- | --- | --- |
| COc1ccc(Cl)cc1C(=O)NCCc1ccc(S(=O)(=O)NC(=O)NC2CCCCC2)cc1 [glibenclamide] | 1.18 | – | – |
| COC(=O)[C@]1(Cc2ccc(O)c(CC=C(C)C)c2)OC(=O)C(O)=C1c1ccc(O)cc1 [butyrolactone I] | – | 0.17 | 2.64 |
